Experiment: Human HepG2 cell viability assay in 384 well format
Assay type: toxicity, cell-based
Parameters: dose 125 nL, time 70.5 hour; concentration not given beside the values
Conditions: HepG2 cells, read-out: Inhibition

Compound	cytotoxicity at 70.5 h [%]
COc1cccc(-c2cc(NCCO)nc3[nH]ccc23)n1	-10.9
CCS(=O)(=O)CCNC1CCN(c2nc3ccc(Cl)cc3s2)CC1	4.49
CC(O)C(=O)N1CCC(c2nccn2Cc2cscn2)CC1 (stereo not drawn)	23.7
CN1CCC2(CC1)CCN(C(=O)c1onc3ccccc13)C2	-6.04
CC(CN1CCCCCC1)NCc1nncn1C1CCCCC1 (stereo not drawn)	-6.55
COCCCC1CCCCN1C(=O)c1ccc(SCCO)cc1 (stereo not drawn)	6.41
Cc1nnsc1CN(C)C(=O)c1ccc(CSc2nnc[nH]2)o1	-10.2
COc1cccc(C(=O)N2C[C@@H](C(=O)O)[C@H](c3ccccc3C)C2)c1	6.74
Cc1cc(N2CCCC(c3[nH]ncc3Cc3ccccc3)C2)nc(N)n1 (stereo not drawn)	11.1
OC1CCCOC12CCN(c1ncccn1)CC2 (stereo not drawn)	15.7
Cc1nc(N2CCC3(CCCN(CCO)C3=O)C2)c2sccc2n1 (stereo not drawn)	-7.31
COCc1nc(C2CC2)nn1-c1ccccc1Cl	-2.98
COc1ccccc1C1CNC(=O)c2nc(-c3cn(C)nc3C)[nH]c2C1 (stereo not drawn)	8.73
CN(C)CC1(O)CCCN(C(=O)c2ccccc2-n2cncn2)C1 (stereo not drawn)	-3.77
CC(=O)NCCNC(=O)C1(N2CCCCC2)Cc2ccccc2C1	-7.44
Cc1ccc(C(=O)O)cc1-c1cccc2c1CCNC2	-21
Cc1ccc2[nH]c(=O)cc(C(=O)N[C@@H]3C[C@@H](CO)N(C)C3)c2c1	-14.7
COCc1nc(C2CC2)nn1-c1cccc(F)c1	-7.42
CC(C)c1cc(C2CCN(C(=O)Cn3cnc4ccccc43)CC2)[nH]n1	4.36
COCc1cc(N2CCOC(c3ccc(Cl)c(Cl)c3)C2)ncn1 (stereo not drawn)	-12.1
CCc1ccc(C2CC(=O)Nc3cc(OC)c(NS(C)(=O)=O)cc32)o1 (stereo not drawn)	-3.63
COc1ccc(CN(Cc2cnn(C)c2)CC(C)C)cn1	-6.19
O=C(c1cc2ccccc2[nH]c1=O)N1CCC2(CCCNC2)C1 (stereo not drawn)	-4.47

Compound	cytotoxicity at 70.5 h [%]
Cc1cccc(-n2nc(CC(C)C)nc2CS(C)(=O)=O)c1	-2.84
CCC(C)N(Cc1c[nH]c(C)n1)Cc1ccccc1Cl (stereo not drawn)	-8.23
CSCCC(=O)N1C[C@@H](C)[C@](O)(C(C)C)C1	-9.47
CCC[C@H]1CN(C2CCOCC2)C[C@@H]1NC(=O)CCn1ccnc1C	3.94
Cc1cnc(CNC(=O)CCCn2cnc3ccccc3c2=O)cn1	6.51
CCN(C)S(=O)(=O)NC(C)c1cnc(N(C)C2CCCCC2)nc1C (stereo not drawn)	-4.92
Cc1ncc(C(=O)N2CCC(N3CCc4ccccc4C3)CC2)c(O)n1	2.23
Cn1nc(CO)c2c1CCN(c1ncnc3c1CCNCC3)C2	-6.13
O=C1[C@@H]2CN(c3ncccc3Cl)C[C@]2(C(=O)O)CN1CC1CC1	-7.05
Cn1cc(CN2CCC(CCC(=O)Nc3ccccc3Cl)CC2)cn1	4.76
O=C(Cc1ccc(F)cc1Cl)N1CC[C@H](CO)[C@@H](O)C1	9.17
COC[C@@]12CC[C@@H](N3CCOCC3)C[C@H]1CCN(c1ncccc1C)C2	-0.155
CCNc1ccnc(NC2CCN(C(=O)c3ccc(C)cc3)CC2)n1	-13.3
Cc1cc(C)cc(N2CCN(Cc3cccnc3)CC2=O)c1	-7.86
Cc1ccsc1-c1cc(C(=O)O)cc(S(=O)(=O)NCc2ccccn2)c1	-9.5
CSc1cccc(CN(C)C(=O)Nc2nc(C)n(C)n2)c1	-3.93
CCn1cc(CNC2CCN(c3cccc(C)c3C)CC2)cn1	-6.01
CNc1nc(C)c(C(=O)N2C[C@H]3CC[C@@H]2CN(c2cnccn2)C3)s1	-6.37
CCc1c(C)nc(C)nc1N1C[C@@H](CN(CC)CCO)[C@@H](CO)C1	10.3
Cc1nc(-c2cccc(N3CCC(NC4CCOCC4)CC3)c2)cs1	-3.92
c1ccc(Cn2cc(CNc3ncnc4c3CCNCC4)cn2)cc1	-15
CCCC1(NC(=O)C(c2ccc(F)cc2)N(C)C)CC1 (stereo not drawn)	10.6
Cc1c(NCc2cccnc2)cccc1C(=O)N1CCC(N(C)C)C1 (stereo not drawn)	-5.39

Compound	cytotoxicity at 70.5 h [%]
Cc1cc(C(F)(F)F)cc(N2C[C@@H](CN3CCOCC3)[C@@H](CO)C2)n1	-16.2
COc1ccccc1CC(=O)N1CCC(OCc2cccnc2)CC1	-13.8
O=S1(=O)COCCN1Cc1ccc(F)c(F)c1	-7.08
CCc1oc(C(=O)NCCNS(C)(=O)=O)cc1CN1CCCC1	11.7
CC(=O)N[C@@H](C)C(=O)NCc1cccnc1Oc1ccccc1F	-11.6
CCC[C@@H]1CN(Cc2ccccc2C#N)C[C@H]1NC(C)=O	-1.98
CN(Cc1cccc(-n2cccn2)c1)C(=O)c1ccnc(N)c1	3.21
N#Cc1nccnc1N1CCC(C(O)c2cccs2)CC1 (stereo not drawn)	10.4
Cc1ccc2c(c1)SCC(=O)N2CC(=O)N1CCCC1c1cc(C)no1 (stereo not drawn)	12.8
CN(c1ccc(C(=O)NCCCN2CCCC2)c(Cl)c1)S(C)(=O)=O	17.4
O=C1CCc2cc(S(=O)(=O)NCc3cc4n(n3)CCCNC4)ccc2N1	-12.2
Cc1nc(N2CCN(C(=O)c3ccccc3)CC2)cc(-n2ccnc2)n1	10.7
COc1ccc(C)cc1-n1cnnc1C1CCOCC1	-2.32
O=c1[nH]c(NC2CCCC2)nc2nccc(-c3ccsc3)c12	-4.5
Cc1nc2c(c(NCCNC(=O)C(C)C)n1)Cc1ccccc1OC2	-6.01
CC(C)Nc1cc(N2CCC(n3cc(C4CCCC4)nn3)CC2)ncn1	-8.81
Cc1cc(C)n(-c2ccc(NCCNS(=O)(=O)c3ccccc3)nn2)n1	-5.4
CCCOC1CCCN(C(=O)c2cnc(-c3csc(C)n3)nc2O)C1 (stereo not drawn)	-6.67
CN(C(=O)c1ccc(C2CCCO2)s1)C1CCS(=O)(=O)CC1 (stereo not drawn)	2.73
COc1ccc(-c2ccccc2CCN)c(OC)c1OC	6.2
CCc1ccccc1OCCCN(C)C(=O)C1CCCN1C(N)=O (stereo not drawn)	-8.96
CN(C)C(=O)C1(Oc2ccc(Cl)cc2)CCNCC1	-3.42
O=C(Cc1n[nH]c(-c2cncc(Br)c2)n1)NCc1ccncc1	-9.88

Compound	cytotoxicity at 70.5 h [%]
CSc1ccccc1C(=O)Nc1ccc(OC2CCN(C)CC2)cc1	17.4
CCC(NC(=O)C1CCN(S(C)(=O)=O)CC1)c1ccc(C)cc1C (stereo not drawn)	-4.73
CCCC1(NC(=O)C(c2ccccc2C)N(C)C)CC1 (stereo not drawn)	-5.65
C/C=C(\C)CN1C[C@H](NC(=O)c2cnc(O)cn2)C[C@H]1C(=O)NCC	-9.9
O=C(NCCc1nccs1)c1cn(CCN2CCNCC2)nn1	-2.39
CC(Oc1ccc(F)cc1F)C(=O)N1CCC2(CCCO2)CC1 (stereo not drawn)	27
CCN(Cc1ccncc1)C(=O)c1cn(CCCc2ccccc2)nn1	-12.5
Cc1ccc(-c2ccc(Cl)nn2)cc1S(N)(=O)=O	-7.63
CCC(C(=O)NCc1cccnc1)N(c1cccc(C)c1)S(C)(=O)=O (stereo not drawn)	6.87
CC(C)Cn1cncc1-c1nc2c([nH]1)CC(C)(C)CNC2=O	4.26
CCc1ccccc1OCCN(C)C(=O)CN1CCCC1	-6.67
CCNC(=O)C(C)Oc1ccc(N(C)S(C)(=O)=O)cc1 (stereo not drawn)	-5.5
Cn1ccc2cc(C(=O)N3CCOCC3)ccc21	-9.22
COc1ccc(NC(=O)c2cc3c([nH]c2=O)CCCC3=O)c(OC)c1	-10.9
Cc1cc(=O)n(CC(=O)Nc2ccc(Cl)cc2)nc1C	-2.9
O=C1CC(c2ccc3c(c2)OCO3)c2cnn(C3CCCC3)c2N1 (stereo not drawn)	-15.7
CN1CCCC2(CCN(Cc3cncn3C3CCCCC3)C2)C1=O (stereo not drawn)	-4.94
CN1CCCCC1Cc1nc(Cc2cccc(F)c2)no1 (stereo not drawn)	-7.83
Cc1ccccc1CC(=O)N1CCc2c(ncnc2N2CCOCC2)C1	13.5
CCC(C)c1ccc(NC(=O)C2CCN(C(=O)COC)CC2)cc1 (stereo not drawn)	-6.71
Cc1nc(N(C)CCN(C)C)c2cnn(C)c2n1	19.9
COCc1nc2ncc3c(=O)n(-c4ccc(C(C)=O)cc4)ccc3n2n1	-10.8
Cc1cccc(C)c1OC1CN(Cc2cnn(C)c2)C1	0.587

Compound	cytotoxicity at 70.5 h [%]
Cc1nn(C)c(C)c1-c1cc(-c2cc(CC(=O)O)cs2)nc(N)c1C#N	-7.79
Cc1nonc1C1CCCN1Cc1ccc(C(=O)Nc2nccs2)cc1 (stereo not drawn)	9.65
O=C1CC(c2ccccc2F)c2c(n(C3CCCC3)[nH]c2=O)N1 (stereo not drawn)	-7.2
CC(=O)N1CCCn2nc(CNS(=O)(=O)Cc3ccccc3)cc2C1	-3.38
COc1cccc(-c2cc(NCC(=O)O)nc3[nH]ccc23)n1	15.1
CCCc1nc(C)cc(N2CCNC(C(=O)Nc3ccc(C)nc3)C2)n1 (stereo not drawn)	19.3
COc1ccnc(CN2CCC=C(C(C)NC(C)=O)C2)c1OC (stereo not drawn)	-3.19
CC(C)(C)c1cc(CN2CCOC(CN)C2)n[nH]1 (stereo not drawn)	2.01
O=C(NCCN1CCOCC1)c1ccc(-c2ccc(F)cc2)nc1O	-3.89
CN1CC2(CCN(CCOCCO)CC2)CC(c2ccccc2)C1=O (stereo not drawn)	29.9
CC(=O)NC1CC(C)(C)Cc2c1cnn2-c1cccc(F)c1 (stereo not drawn)	-9.9
COc1nc2c(cc1C(=O)NCCc1nc(C)c(C(=O)O)s1)CCC2	10
O=C1CC(c2ccccc2)c2cnn(C3CCCC3)c2N1 (stereo not drawn)	18.5
Cc1ccc2c(c1)OC(C)(C)CC2NC(=O)C1CCN(C)CC1 (stereo not drawn)	-9.96
O=C(CCN1CCOCC1)N1CCC(Cc2ccc(CO)cc2)C1 (stereo not drawn)	-2.12
O=C(CN1CCCC1Cn1cncn1)NCCOc1ccc(F)cc1 (stereo not drawn)	-0.118
Cc1ccccc1C1(CNC(=O)NC(C)c2nncn2C)CC1 (stereo not drawn)	-2.77
CC(NC(=O)NCC1(c2ccc(Cl)cc2)CC1)c1nncn1C (stereo not drawn)	-2.86
O=C(CN1CCCC1Cn1cccn1)NCCOc1cccc(F)c1 (stereo not drawn)	-0.693
CCNc1cc2c(nn1)CCN(C(=O)CCc1c(C)noc1C)C2	18.9
Cc1nc(C2CCCN(C(=O)c3ccc(OCC4CC4)nc3)C2)no1 (stereo not drawn)	-2.87

— ChEMBL document CHEMBL3507680, “University of Dundee, Gates Library screen for HepG2 cell viability”
